{"source": "patent US20240099214A1", "about": "“PLANT DEFENCE GENE EXPRESSION” (UPL Corporation Limited, priority 2021, published 2024)", "key": {"[1]": {"test_system": "1-aminocryclopropane-1-carboxylate oxidase-like protein (gene 6, Solyc11g072100.1)", "experiment": "qRT-PCR expression of gene 6 in tomato leaves", "format": "in vivo, Tomato ecotype corbarino", "design": "key: relative expression normalized to a-tubulin housekeeping gene", "protocol": "(§1) Tomato ecotype “corbarino” reported to be susceptible to TSWV infection was used in the experiment. Plants were grown in pots in a climatic chamber with a photoperiod of 16/8 hour at 25° C.\n(§2) The viral strain (TSWV PV PV-0393) was utilized in the experiment. The virus was mechanically inoculated and propagated on tomato “corbarino”. The inoculum was prepared in an ice-cooled mortar grounding 1 gr of infected tomato tissue in 10 ml of Na-phosphate buffer 0.01M. The fresh prepared inoculum was stored in ice before use. Tomato plants at BBCH16 were dusted with Carborundum 600 mesh and selected leaves were rubbed with some droplets of inoculum. After 5 min. plants were sprayed with sterile water to remove the excess of inoculum and preserve the cell turgor.\n(§3) Four treatments were compared: i) Mock inoculated; ii) TSWV; iii) 0.25% Laminarin; iv) 0.25% Laminarin+TSWV. In the last treatment the virus was inoculated 24 hrs after the laminarin application.\n(§4) Total RNA was extracted from systemic infected tomato leaves by using the Quick-RNA Plant Kit (Zymo Research) following the manufacturer instructions. The extractions were carried out using three plants after 12 h, 24 h, 48 h, 72 h, 7 days after inoculation. Leaves were instantly frozen in liquid nitrogen after cutting to avoid any deterioration of the sample as well as any defense reaction. The RNA concentration was quantified by measuring the absorbance at 260 nm using a Nanodrop 2000 (Thermofisher). The purity of all of the RNA samples was assessed at an absorbance ratio of OD260/280 and OD260/230, while its structural integrity was checked by agarose gel electrophoresis. Only high-quality RNA with OD 260/280 and OD 260/230>2 was used for subsequent steps. Single-stranded cDNA was synthesized from 1 μg of total RNA using an iScript™ Select cDNA Synthesis Kit and random hexamers as primers (Bio-Rad, Milan, Italy), according to the manufacturer's instructions. Three biological replicates were created from the 3 leaves collected to test 15 genes. Alpha tubulin was used as reference gene.\n(§5) qPCR reactions were performed with BioRad (Applied Biosystems, Foster City, CA, USA) using SYBR R Green. Each reaction was performed in 20 μl containing 10 μl of 2× Power SYBR Green PCR Master Mix (Life Technologies), 0.2-0.3 μM primers and cDNA samples diluted 1:20. Each qPCR reaction was performed in triplicate. Reactions were run using the cycling parameter described previously (Reid et al., 2006) and the qPCR data were analyzed by the Ct method (Pfaffl, 2001). In order to analyze the qPCR data, a-tubulin gene was used as housekeeping to determine the relative expression level of the other genes analyzed in this work. For the determination of qPCR efficiency of each primer pairs, a standard curve was performed using the following cDNA dilutions: 1:4, 1:16, 1:64; 1:256 and 1:1024. Every measurement was made in triplicate. The corresponding qPCR efficiencies (E) were calculated for every primer pair with the software 7300 System SDS software (Applied Biosystems, Foster City, CA, USA) according to the equation E=(10−1/slope−1)×100 (Rutledge and Stewart, 2008).\n(§6) The significance of the differences between the gene expressions levels were compared by one-way ANOVA (p=0.01) and the means were separated by Tukey post-hoc test using SPSS ver.26 ([…])."}, "[2]": {"test_system": "Pathogenesis-related protein P4 (gene 11, M69247.1)", "experiment": "qRT-PCR expression of gene 11 in tomato leaves", "format": "in vivo, Tomato ecotype corbarino", "design": "key: relative expression normalized to a-tubulin housekeeping gene", "protocol": "as §1, §2, §3, §4, §5, §6"}}, "data": [{"substance": "laminarin", "values": [{"measurement": "RQ1", "setting": "[1]; 12 hr, Laminarin alone", "value": 0.9088}, {"measurement": "RQ2", "setting": "[1]; 12 hr, Laminarin alone", "value": 0.971}, {"measurement": "RQ3", "setting": "[1]; 12 hr, Laminarin alone", "value": 0.8924}, {"measurement": "RQ mean", "setting": "[1]; 12 hr, Laminarin alone", "value": 0.9241}, {"measurement": "RQ1", "setting": "[1]; 24 hr, Laminarin + virus", "value": 13.422}, {"measurement": "RQ2", "setting": "[1]; 24 hr, Laminarin + virus", "value": 17.528}, {"measurement": "RQ3", "setting": "[1]; 24 hr, Laminarin + virus", "value": 12.610}, {"measurement": "RQ mean", "setting": "[1]; 24 hr, Laminarin + virus", "value": 14.520}, {"measurement": "RQ1", "setting": "[1]; 24 hr, Laminarin alone", "value": 16.709}, {"measurement": "RQ2", "setting": "[1]; 24 hr, Laminarin alone", "value": 18.603}, {"measurement": "RQ3", "setting": "[1]; 24 hr, Laminarin alone", "value": 0.8182}, {"measurement": "RQ mean", "setting": "[1]; 24 hr, Laminarin alone", "value": 14.498}, {"measurement": "RQ1", "setting": "[1]; 48 hr, Laminarin + virus", "value": 14.823}, {"measurement": "RQ2", "setting": "[1]; 48 hr, Laminarin + virus", "value": 17.395}, {"measurement": "RQ3", "setting": "[1]; 48 hr, Laminarin + virus", "value": 0.9742}, {"measurement": "RQ mean", "setting": "[1]; 48 hr, Laminarin + virus", "value": 13.987}, {"measurement": "RQ1", "setting": "[1]; 48 hr, Laminarin alone", "value": 16.033}, {"measurement": "RQ2", "setting": "[1]; 48 hr, Laminarin alone", "value": 16.927}, {"measurement": "RQ3", "setting": "[1]; 48 hr, Laminarin alone", "value": 10.675}, {"measurement": "RQ mean", "setting": "[1]; 48 hr, Laminarin alone", "value": 14.545}, {"measurement": "RQ1", "setting": "[1]; 72 hr, Laminarin + virus", "value": 26.404}, {"measurement": "RQ2", "setting": "[1]; 72 hr, Laminarin + virus", "value": 20.406}, {"measurement": "RQ3", "setting": "[1]; 72 hr, Laminarin + virus", "value": 19.154}, {"measurement": "RQ mean", "setting": "[1]; 72 hr, Laminarin + virus", "value": 21.988}, {"measurement": "RQ1", "setting": "[1]; 72 hr, Laminarin alone", "value": 27.013}, {"measurement": "RQ2", "setting": "[1]; 72 hr, Laminarin alone", "value": 20.615}, {"measurement": "RQ3", "setting": "[1]; 72 hr, Laminarin alone", "value": 19.604}, {"measurement": "RQ mean", "setting": "[1]; 72 hr, Laminarin alone", "value": 22.410}, {"measurement": "RQ1", "setting": "[2]; 12 hr, Laminarin + virus", "value": 12.101}, {"measurement": "RQ2", "setting": "[2]; 12 hr, Laminarin + virus", "value": 11.431}, {"measurement": "RQ3", "setting": "[2]; 12 hr, Laminarin + virus", "value": 10.206}, {"measurement": "RQ mean", "setting": "[2]; 12 hr, Laminarin + virus", "value": 11.246}, {"measurement": "RQ1", "setting": "[2]; 12 hr, Laminarin alone", "value": 0.9441}, {"measurement": "RQ2", "setting": "[2]; 12 hr, Laminarin alone", "value": 0.8925}, {"measurement": "RQ3", "setting": "[2]; 12 hr, Laminarin alone", "value": 11.302}, {"measurement": "RQ mean", "setting": "[2]; 12 hr, Laminarin alone", "value": 0.9889}, {"measurement": "RQ1", "setting": "[2]; 24 hr, Laminarin + virus", "value": 13.862}, {"measurement": "RQ2", "setting": "[2]; 24 hr, Laminarin + virus", "value": 11.424}, {"measurement": "RQ3", "setting": "[2]; 24 hr, Laminarin + virus", "value": 11.236}, {"measurement": "RQ mean", "setting": "[2]; 24 hr, Laminarin + virus", "value": 12.174}, {"measurement": "RQ1", "setting": "[2]; 24 hr, Laminarin alone", "value": 17.183}, {"measurement": "RQ2", "setting": "[2]; 24 hr, Laminarin alone", "value": 12.595}, {"measurement": "RQ3", "setting": "[2]; 24 hr, Laminarin alone", "value": 13.075}, {"measurement": "RQ mean", "setting": "[2]; 24 hr, Laminarin alone", "value": 14.284}, {"measurement": "RQ1", "setting": "[2]; 48 hr, Laminarin + virus", "value": 28.058}, {"measurement": "RQ2", "setting": "[2]; 48 hr, Laminarin + virus", "value": 20.254}, {"measurement": "RQ3", "setting": "[2]; 48 hr, Laminarin + virus", "value": 34.812}, {"measurement": "RQ mean", "setting": "[2]; 48 hr, Laminarin + virus", "value": 27.708}, {"measurement": "RQ1", "setting": "[2]; 48 hr, Laminarin alone", "value": 34.926}, {"measurement": "RQ2", "setting": "[2]; 48 hr, Laminarin alone", "value": 33.905}, {"measurement": "RQ3", "setting": "[2]; 48 hr, Laminarin alone", "value": 24.218}, {"measurement": "RQ mean", "setting": "[2]; 48 hr, Laminarin alone", "value": 31.016}, {"measurement": "RQ1", "setting": "[2]; 72 hr, Laminarin + virus", "value": 80.672}, {"measurement": "RQ2", "setting": "[2]; 72 hr, Laminarin + virus", "value": 76.025}, {"measurement": "RQ3", "setting": "[2]; 72 hr, Laminarin + virus", "value": 53.346}, {"measurement": "RQ mean", "setting": "[2]; 72 hr, Laminarin + virus", "value": 70.014}, {"measurement": "RQ1", "setting": "[2]; 72 hr, Laminarin alone", "value": 47.958}, {"measurement": "RQ2", "setting": "[2]; 72 hr, Laminarin alone", "value": 51.518}, {"measurement": "RQ3", "setting": "[2]; 72 hr, Laminarin alone", "value": 48.365}, {"measurement": "RQ mean", "setting": "[2]; 72 hr, Laminarin alone", "value": 49.280}]}]}
